Results: US4707481A, “Pyridazinones, their preparation and use, and bronchospasmolytic medicaments containing pyridazinones” (BYK Gulden Lomberg Chemische Fabrik GmbH, priority 1983, dated 1987)

Columns and labels:
[1] = test system: chain of tracheal rings of guinea pigs; test: relaxing action on chain of tracheal rings in vitro (bronchospasmolytic action); design: species or system guinea pig; conditions: for EC50: Cavia porcellus, Column A, negative logarithm of EC50 in mol/l, 50% of maximum relaxation by (-)isoprenaline, read-out: -lg[EC50] trachea (converted); for [EC40 pot.] left atrium / [EC50] trachea: Column C, measure of organ-selective activity; for [EC50] theophylline / [EC50] substance: Column D, trachea
Protocol: The relaxing action of the 6-aryl-3[2H]pyridazinones I has been tested in vitro on a chain of tracheal rings (Tr.) of guinea pigs. […] The quotient of [EC40pot. ]left atrium and [ED50 ]trachea serves as a measure of the organ-selective activity.
The bronchospasmolytic action of the compounds on the chain of tracheal rings of the guinea pig was tested in vitro:
Four parallel chains of tracheal rings, each consisting of 6 individual rings, of guinea pigs(.male. and .female., 430-600 g) in an organ bath [5 ml, Krebs-Henseleit solution with added phentolamine (10^-5 mol/l), 37° C., initial tension of the organs 2 g, gassing with carbogen] develop a stable, spontaneous tonic contraction after about 20 to 30 minutes. […] Over a period of 20 to 30 minutes, a complete dose/action curve of the test substance is thus obtained. The particular relaxation is expressed as a percentage fraction of the maximum relaxation which can be achieved by administration of (-)isoprenaline (10^-6 mol/1). The concentration of the test substance which causes 50% of the maximum relaxation which can be achieved, expressed by the negative logarithm of the EC50 mol/l: -lg[EC50 ]is a measure of the bronchodilator activity.

[2] = test system: electrically stimulated left atrium of rats; test: positive inotropic action on electrically stimulated left atrium in vitro; design: species or system rat; conditions: for [EC40 pot.] theophylline / [EC40 pot.] substance: Column E, left atrium; for EC40: Rattus norvegicus, Column B, negative logarithm of EC40pot in mol/l, 40% increase in contraction force, read-out: -lg[EC40 pot.] left atrium (converted)
Protocol: The positive inotropic action was tested in vitro on the electrically stimulated left atrium of rats (l.a.).
The positive inotropic action of the compounds was tested in vitro on the electrically stimulated left atrium of rats.
Isometric contractions (HSE force sensor K-30; Watanabe recorder, Linear Corder Mark 5) of isolated, left atria from rats (.male., 250-300 g) in an organ bath (10 ml, Tyrode nutrient solution, 31° C., gassing with carbogen, initial tension of the organs 0.25 g) under electrical stimulation (HSE stimulator, 7 V, 3 ms, 2 Hz) were recorded. […] The particular increase in the contraction force is expressed in % of the starting value before administration of the substance. The concentration of the test substance which potentiates the contraction force of the atrium by 40% compared with the starting value [EC40pot. mol/l], expressed by the negative logarithm of the [EC40pot mol/l]: -lg[EC40pot ] serves as a measure of the cardiotonic activity.

[3] = toxicity studies, mouse p.o.; conditions: in vivo, po
Protocol: The toxicity studies are carried out on female NMRI mice (body weight 23-30 g). The animals (5 animals per dose) receive food and water ad libitum. Various doses of the substances are administered once as a suspension in methocel via a gavage. The period of observation lasts 7 days. The tolerated dose (TD), that is to say the highest dose at which as yet none of the animals die, is determined by observation. The average lethal dose (LD50), that is to say the dose at which 50% of the animals die, is determined from the dose/action curve by means of linear regression.

[4] = test system: histamine-induced bronchospasm; test: inhibition of histamine-induced bronchospasm in anesthetized guinea pigs; assay type: in vivo, guinea pig; conditions: for inhibition of histamine-induced bronchospasm, TVi / inhibition of histamine-induced bronchospasm, Vmaxe / inhibition of histamine-induced bronchospasm, Vmaxi: 20 μmol/kg i.v.
Protocol: A method for simultaneously recording pharmacodynamic and toxic effects on internal sensitive receptors, on the respiration and the cardiovascular system of guinea pigs was used [U. Kilian, E. Muller, E. Ch. […] To characterize the bronchospasm induced by histamine (0.09-0.18 μmol /kg i.v.), the maximum flow rate of the respiratory air during inspiration (Vmaxi) and expiration (Vmaxe) and the breath volume (BVi) were measured. A histamine spasm before administration of the substance was compared with several histamine spasms after administration of the substance. The test substances were administered intravenously (i.v.) and/or intrajejunally (i.j.). 5 to 10 animals were used per measurement, and the arithmetic mean was calculated from the results.

[5] = test system: acetylcholine-induced bronchospasm; test: protective effect against acetylcholine-induced bronchospasm in conscious guinea pigs; assay type: in vivo, guinea pig
Protocol: The figure in parentheses indicates the number out of 10 animals in which the latency period more than tripled.
The latency period is to be understood to be the time from the start of acetylcholine-atomization until clear signs of asthma appeared.
The time from the start of atomization to the onset of clear respiratory exertion (in certain circumstances, hypoxic convulsion in the lateral position) is measured, and is denoted the latency period.
The test substance is administered orally by gavage (standard dose 100 μmol/kg, volume 1 ml of 4% strength methocel suspension in 0.9% strength sodium chloride solution/kg). […] Prolongation of the latency period to at least twice its length is regarded as a protective effect.

COc1cc(-c2ccc(=O)[nH]n2)ccc1OCCC(C)C [Serial No. 6, 6-[3-methoxy-4-(3-methylbutoxy)-phenyl]-3[2H]pyridazinone]
EC50 [1]: 708 nM
[EC40 pot.] left atrium / [EC50] trachea [1]: 219
[EC50] theophylline / [EC50] substance [1]: 190
[EC40 pot.] theophylline / [EC40 pot.] substance [2]: 4.6
EC40 [2]: 91200 nM
tolerated dose ([3]; mouse, 10080 min): > 800

CCOc1cc(-c2ccc(=O)[nH]n2)ccc1OC [compound 8]
EC50 [1]: 339 nM
[EC40 pot.] left atrium / [EC50] trachea [1]: 3.9
[EC50] theophylline / [EC50] substance [1]: 398
[EC40 pot.] theophylline / [EC40 pot.] substance [2]: 316
EC40 [2]: 1320 nM
LD50 at 168 h ([3]; Column F, mouse p.o., 7 days observation, read-out: Approximate LD50): 550 mg/kg

COc1ccc(-c2ccc(=O)[nH]n2)cc1OCC(C)C [Serial No. 15, 6-(4-methoxy-3-isobutoxyphenyl)-3[2H]pyridazinone]
EC50 [1]: 724 nM
[EC40 pot.] left atrium / [EC50] trachea [1]: 0.5
[EC50] theophylline / [EC50] substance [1]: 186
[EC40 pot.] theophylline / [EC40 pot.] substance [2]: 1122
EC40 [2]: 372 nM
inhibition of histamine-induced bronchospasm, TVi ([4]; 2 min): 99%
inhibition of histamine-induced bronchospasm, Vmaxe ([4]; 2 min): 108%
inhibition of histamine-induced bronchospasm, Vmaxi ([4]; 2 min): 172%
inhibition of histamine-induced bronchospasm, TVi ([4]; 10 min): 107%
inhibition of histamine-induced bronchospasm, Vmaxe ([4]; 10 min): 123%
inhibition of histamine-induced bronchospasm, Vmaxi ([4]; 10 min): 119%
inhibition of histamine-induced bronchospasm, TVi ([4]; 20 min): 104%
inhibition of histamine-induced bronchospasm, Vmaxe ([4]; 20 min): 103%
inhibition of histamine-induced bronchospasm, Vmaxi ([4]; 20 min): 110%
inhibition of histamine-induced bronchospasm, TVi ([4]; 30 min): 63%
inhibition of histamine-induced bronchospasm, Vmaxe ([4]; 30 min): 84%
inhibition of histamine-induced bronchospasm, Vmaxi ([4]; 30 min): 82%
inhibition of histamine-induced bronchospasm, TVi ([4]; 60 min): 33%
inhibition of histamine-induced bronchospasm, Vmaxe ([4]; 60 min): 46%
inhibition of histamine-induced bronchospasm, Vmaxi ([4]; 60 min): 60%
inhibition of histamine-induced bronchospasm compared with theophylline ([4]; result in words): significantly more effective than theophylline
Doubling of the latency period ([5]; 100 μmol/kg p.o., 30 min): 10 N of 10 animals
Tripling of the latency period ([5]; 100 μmol/kg p.o., 30 min, figure in parentheses): 10 N of 10 animals
protective effect compared with theophylline ([5]; result in words): greater protective effect
